According to patent US20260356856A1, “KRAS G12S AND G12C INHIBITORS” (MIRATI THERAPEUTICS, INC., priority 2023, published 2026):

How the values were obtained:
[1] = target: T1, KRas-mediated phosphorylation of ERK in H358 cells (Homo sapiens, UniProt P01116, G12C); experiment: Inhibition of KRas-mediated phosphorylation of ERK (HTRF), H358 cells; type: cell-based; conditions: HTRF pERK, 3 h incubation
T1 construct: pERK HTRF read-out

[2] = target: T2, KRas-mediated phosphorylation of ERK in MKN1 cells (Homo sapiens, UniProt P01116); experiment: Inhibition of KRas-mediated phosphorylation of ERK (HTRF), MKN1 cells; type: cell-based; conditions: MKN1 cells (KRas WT); HTRF pERK; 3 h incubation
T2 construct: pERK HTRF read-out
Protocol: Inhibition of KRas Phosphorylation of ERK (HTRF) by Exemplary Compounds of Formula (Ia) or (Ib)
Cisbio HTRF Advanced pERK Assay Catalog #64AERPEH • Cells: MKN1, PSN1 • Procedure: • 1. Day 1: Seed 6,000 cells/well −25 μl/well in 384-well white solid bottom plate; RPM1_10% FBS. Incubate overnight at 37 °C/5% CO2. • 2.

[3] = target: T3, KRas G12S (Homo sapiens, UniProt P01116, G12S); experiment: KRas binding assay, TR-FRET displacement of Cy5 labelled tracer; conditions: 60-minute incubation at room temperature, 1% DMSO, pH 7.5
T3 construct: Biotinylated KRas (corresponding to amino acids 1-169, produced at Accelegan Inc.); biotin (biotinylated); purchased Accelegan Inc
Method in brief: (§1)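 Final conditions: 1% DMSO, pH 7.5 HEPES buffer, 60 min, room temperature. Protein: biotin-KRas 1-169 with terbium streptavidin. Output: IC50, four-parameter fit of POC.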

[4] = target: T4, KRas G12C (Homo sapiens, UniProt P01116, G12C); experiment: as above; conditions: 60-minute incubation at room temperature, 1% DMSO, pH 7.5
T4 construct: Biotinylated KRas (corresponding to amino acids 1-169, produced at Accelegan Inc.); biotin (biotinylated); purchased Accelegan Inc
Method in brief: as §1

[5] = target: T5, KRas WT (Homo sapiens, UniProt P01116); experiment: as above; conditions: 60-minute incubation at room temperature, 1% DMSO, pH 7.5
T5 construct: Biotinylated KRas (corresponding to amino acids 1-169, produced at Accelegan Inc.); biotin (biotinylated); purchased Accelegan Inc
Method in brief: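 Displacement measured on KRas residues 1-169 (biotinylated, terbium-streptavidin labelled); 1 h, RT; 1% DMSO final; HEPES pH 7.5 / MgCl2 / Tween-20 / DTT. IC50: 4-parameter fit.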

[6] = target: T6, KRas-mediated phosphorylation of ERK in A549 cells (Homo sapiens, UniProt P01116, G12S); experiment: Inhibition of KRas-mediated phosphorylation of ERK (HTRF), A549 cells; type: cell-based; conditions: HTRF pERK, 3 h incubation
T6 construct: pERK HTRF read-out
T6 sequence (P01116 1-188 isoform P01116-2 G12S): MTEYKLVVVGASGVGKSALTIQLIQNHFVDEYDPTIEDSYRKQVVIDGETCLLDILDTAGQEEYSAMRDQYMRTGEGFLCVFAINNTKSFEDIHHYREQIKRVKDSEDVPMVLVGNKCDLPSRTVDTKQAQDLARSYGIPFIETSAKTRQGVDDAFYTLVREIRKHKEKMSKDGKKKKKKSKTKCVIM

T5 sequence (P01116 1-169 isoform P01116-2): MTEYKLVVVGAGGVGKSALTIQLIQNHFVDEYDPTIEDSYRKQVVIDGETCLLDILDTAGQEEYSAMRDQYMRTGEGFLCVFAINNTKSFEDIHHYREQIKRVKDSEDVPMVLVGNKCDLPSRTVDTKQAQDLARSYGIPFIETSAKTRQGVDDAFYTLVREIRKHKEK
T4 sequence (P01116 1-169 isoform P01116-2 G12C): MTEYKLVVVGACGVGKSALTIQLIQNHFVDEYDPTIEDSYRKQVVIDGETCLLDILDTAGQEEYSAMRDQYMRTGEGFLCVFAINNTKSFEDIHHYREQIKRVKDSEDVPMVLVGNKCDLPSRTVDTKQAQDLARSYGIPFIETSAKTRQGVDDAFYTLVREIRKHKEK
T2 sequence (P01116 1-188 isoform P01116-2): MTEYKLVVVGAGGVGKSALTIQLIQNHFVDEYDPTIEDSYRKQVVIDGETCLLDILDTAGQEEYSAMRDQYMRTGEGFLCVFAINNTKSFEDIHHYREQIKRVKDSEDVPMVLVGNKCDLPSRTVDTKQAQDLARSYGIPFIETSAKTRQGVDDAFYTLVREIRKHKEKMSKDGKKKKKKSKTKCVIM
T3 sequence (P01116 1-169 isoform P01116-2 G12S): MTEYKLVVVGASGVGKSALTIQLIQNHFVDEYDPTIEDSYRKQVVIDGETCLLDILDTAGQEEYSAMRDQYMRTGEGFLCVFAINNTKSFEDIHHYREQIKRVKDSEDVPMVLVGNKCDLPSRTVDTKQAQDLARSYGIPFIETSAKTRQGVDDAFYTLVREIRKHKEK
T1 sequence (P01116 1-188 isoform P01116-2 G12C): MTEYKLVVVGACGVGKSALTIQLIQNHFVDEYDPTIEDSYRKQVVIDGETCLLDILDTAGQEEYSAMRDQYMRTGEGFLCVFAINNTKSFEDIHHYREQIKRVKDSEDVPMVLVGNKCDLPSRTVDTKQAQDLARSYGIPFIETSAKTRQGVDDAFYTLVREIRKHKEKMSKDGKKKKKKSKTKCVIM

| IC50 [1] [nM] | IC50 [2] [nM] | IC50 [3] [nM] | IC50 [4] [nM] | IC50 [5] [nM] | IC50 [6] [nM] | Structure (SMILES) |
| --- | --- | --- | --- | --- | --- | --- |
| 3 | 97 | 7 | 3 | 12 | 234 | CN(CCN(C)c1nc(OC[C@@]23CCCN2C[C@H](F)C3)nc2c(F)c(-c3ccc(F)c4sc(N)c(C#N)c34)c(Cl)cc12)C(=O)n1cncn1 [Example 232, N-(2-((7-(2-amino-3-cyano-7-fluorobenzo[b]thiophen-4-yl)-6-chloro-8-fluoro-2-(((2R,7aS)-2-fluorotetrahydro-1H-pyrrolizin-7a(5H)-yl)methoxy)quinazolin-4-yl)(methyl)amino)ethyl)-N-methyl-1H-1,2,4-triazole-1-carboxamide] |
| 114 | 171 | 8 | 6 | 11 | 669 | CN(C)C(=O)N(C)C(=O)CCCN(C)c1nc(OC[C@@]23CCCN2C[C@H](F)C3)nc2c(F)c(-c3ccc(F)c4sc(N)c(C#N)c34)c(Cl)cc12 [Example 239, 4-((7-(2-amino-3-cyano-7-fluorobenzo[b]thiophen-4-yl)-6-chloro-8-fluoro-2-(((2R,7aS)-2-fluorotetrahydro-1H-pyrrolizin-7a(5H)-yl)methoxy)quinazolin-4-yl)(methyl)amino)-N-(dimethylcarbamoyl)-N-methylbutanamide] |
| 9 | 258 | 6 | 7 | 7 | 5 | N#Cc1c(N)sc2c(F)ccc(-c3c(Cl)cc4c(N5CCCC(C(=O)n6cccn6)CC5)nc(OC[C@@]56CCCN5C[C@H](F)C6)nc4c3F)c12 (stereo partly drawn) [Example 131, 4-(4-(4-(1H-pyrazole-1-carbonyl)azepan-1-yl)-6-chloro-8-fluoro-2-(((2R,7aS)-2-fluorotetrahydro-1H-pyrrolizin-7a(5H)-yl)methoxy)quinazolin-7-yl)-2-amino-7-fluorobenzo[b]thiophene-3-carbonitrile] |
| 26 | 736 | 127 | 19 | 330 | 215 | Cc1ccccc1OC(=O)C1CCN(c2nc(OC[C@@]34CCCN3C[C@H](F)C4)nc3c(F)c(-c4ccc(F)c5sc(N)c(C#N)c45)c(Cl)cc23)CC1 [Example 243, o-tolyl 1-(7-(2-amino-3-cyano-7-fluorobenzo[b]thiophen-4-yl)-6-chloro-8-fluoro-2-(((2R,7aS)-2-fluorotetrahydro-1H-pyrrolizin-7a(5H)-yl)methoxy)quinazolin-4-yl)piperidine-4-carboxylate] |
| 29 | 41 | 11 | 14 | 14 | 28 | CC(=O)N(C)C(=O)C1CCCN(c2nc(OC[C@@]34CCCN3C[C@H](F)C4)nc3c(F)c(-c4ccc(F)c5sc(N)c(C#N)c45)c(Cl)cc23)CC1 (stereo partly drawn) [Example 255, N-acetyl-1-(7-(2-amino-3-cyano-7-fluorobenzo[b]thiophen-4-yl)-6-chloro-8-fluoro-2-(((2R,7aS)-2-fluorotetrahydro-1H-pyrrolizin-7a(5H)-yl)methoxy)quinazolin-4-yl)-N-methylazepane-4-carboxamide] |
| 75 | 205 | 9 | 5 | 11 | 266 | CN(CCCC(=O)N(C)c1ccncn1)c1nc(OC[C@@]23CCCN2C[C@H](F)C3)nc2c(F)c(-c3ccc(F)c4sc(N)c(C#N)c34)c(Cl)cc12 [Example 268, 4-((7-(2-amino-3-cyano-7-fluorobenzo[b]thiophen-4-yl)-6-chloro-8-fluoro-2-(((2R,7aS)-2-fluorotetrahydro-1H-pyrrolizin-7a(5H)-yl)methoxy)quinazolin-4-yl)(methyl)amino)-N-methyl-N-(pyrimidin-4-yl) butanamide] |

The next lines start with the molecule.

| Structure (SMILES) | IC50 [1] [nM] | IC50 [2] [nM] | IC50 [3] [nM] | IC50 [4] [nM] | IC50 [5] [nM] | IC50 [6] [nM] |
| --- | --- | --- | --- | --- | --- | --- |
| CCc1c(F)ccc2cc(O)cc(-c3ncc4c(N5CCC(C(=O)N(C)C(=O)C(C)(C)C)CC5)nc(OC[C@@]56CCCN5C[C@H](F)C6)nc4c3F)c12 [Example 224, 1-(7-(8-ethyl-7-fluoro-3-hydroxynaphthalen-1-yl)-8-fluoro-2-(((2R,7aS)-2-fluorotetrahydro-1H-pyrrolizin-7a(5H)-yl)methoxy)pyrido[4,3-d]pyrimidin-4-yl)-N-methyl-N-pivaloylpiperidine-4-carboxamide] | 1330 | 321 | 257 | 526 | 177 | 3770 |
| Cc1ccn(C(=O)CCNc2cc(-c3noc4c3CCC[C@@]43CCCc4sc(N)c(C#N)c43)nc(N3CCNC[C@@H]3C)n2)n1 [Example 321, (S)-2-amino-3′-(6-((3-(3-methyl-1H-pyrazol-1-yl)-3-oxopropyl)amino)-2-((S)-2-methylpiperazin-1-yl)pyrimidin-4-yl)-5′,6,6′,7-tetrahydro-4′H,5H-spiro[benzo[b]thiophene-4,7′-benzo[d]isoxazole]-3-carbonitrile] | 1060 | 861 | 21 | 14 | 28 | 192 |
| CCc1c(F)ccc2cc(O)cc(-c3ncc4c(N(C)CCCC(=O)N(C)C(C)=O)nc(OC[C@@]56CCCN5C[C@H](F)C6)nc4c3F)c12 [Example 221, N-acetyl-4-((7-(8-ethyl-7-fluoro-3-hydroxynaphthalen-1-yl)-8-fluoro-2-(((2R,7aS)-2-fluorotetrahydro-1H-pyrrolizin-7a(5H)-yl)methoxy)pyrido[4,3-d]pyrimidin-4-yl)(methyl)amino)-N-methylbutanamide] | 485 | 409 | 11 | 43 | 101 | 26 |
| CCc1c(F)ccc2cc(O)cc(-c3ncc4c(N5CCC(C(=O)n6nc(C)cc6C)CC5)nc(OC[C@@]56CCCN5C[C@H](F)C6)nc4c3F)c12 [Example 74, (3,5-dimethyl-1H-pyrazol-1-yl)(1-(7-(8-ethyl-7-fluoro-3-hydroxynaphthalen-1-yl)-8-fluoro-2-(((2R,7aS)-2-fluorotetrahydro-1H-pyrrolizin-7a(5H)-yl)methoxy)pyrido[4,3-d]pyrimidin-4-yl)piperidin-4-yl)methanone] | 2290 | 3330 | 885 | 578 | 798 | 464 |
| Cc1ccn(C(=O)CCCNc2cc(O[C@@H](C)[C@@H]3CCCN3C)nc(-c3noc([C@]4(C)CCCc5sc(N)c(C#N)c54)n3)n2)n1 [Example 324, (R)-2-amino-4-methyl-4-(3-(4-((4-(3-methyl-1H-pyrazol-1-yl)-4-oxobutyl)amino)-6-((S)-1-((S)-1-methylpyrrolidin-2-yl)ethoxy)pyrimidin-2-yl)-1,2,4-oxadiazol-5-yl)-4,5,6,7-tetrahydrobenzo[b]thiophene-3-carbonitrile] | 262 | 651 | < 2 | < 2 | 19 | 9 |
| Cc1ccn(C(=O)CCNc2cc(O[C@@H](C)[C@@H]3CCCN3C)nc(-c3noc([C@@]4(C)CCCc5sc(N)c(C#N)c54)n3)n2)n1 [Example 318, (S)-2-amino-4-methyl-4-(3-(4-((3-(3-methyl-1H-pyrazol-1-yl)-3-oxopropyl)amino)-6-((S)-1-((S)-1-methylpyrrolidin-2-yl)ethoxy)pyrimidin-2-yl)-1,2,4-oxadiazol-5-yl)-4,5,6,7-tetrahydrobenzo[b]thiophene-3-carbonitrile] | 908 | 801 | 3 | 2 | 12 | 17 |
